Laboratory results from patent US20250169496A1, “USE OF 2-AMINO-3-HYDROXY-3-METHYLBUTYRIC ACID AND/OR 2-AMINO-3-(4-HYDROXYPHENYL) BUTYRIC ACID” (NANJING TIANNONG BIOTECHNOLOGY CO., LTD., priority 2021, published 2025).

Assays:
wheat powdery mildew = assay: Induced resistance of wheat seedlings to powdery mildew (greenhouse pots); type: in vivo, wheat (NAU0686); conditions: for Relative immune effect: wheat powdery mildew; for Number of mycelia and conidium yield on wheat leaves: 10-10,000 nM, with the increase of concentration
Method: Take 2-amino-3-hydroxy-3-methylbutyric acid, dissolve it in distilled water, then dilute the solution with distilled water by gradient into 10 nM, 100 nM, 1,000 nM and 10,000 nM solutions, and set a blank control. Accelerate germination of wheat (NAU0686) seeds, then sow them in sterilized soil bowls, and culture them in a greenhouse of 23 (±1)° C. and 12 h illumination. Spray the 2-amino-3-hydroxy-3-methylbutyric acid solutions at the above concentrations to the stems and leaves of wheat seedlings when the seedlings have grown to have one leaf and one shoot, at an interval of 24 h and twice in total, evenly sprinkle fresh powdery wheat spores on the wheat leaves after 24 h, 3 pots each treatment, 20 plants per pot. Investigate the morbidity level of the wheat in each treatment after 10 d, record the morbidity level according to the wheat powdery mildew grading standard in the Pesticide—Guidelines for the Field Efficacy Trials(I) and calculate the disease index and relative immune effect by the calculation method same as that for the disease index and relative immune effect of tomato spotted wilt. Wheatpowdery mildew grading standard (with leaf as a unit): • Level 1: The area of the disease spots accounts for less than 5% of the whole leaf area; • Level 3: The area of the disease spots accounts for6%-15% of the whole leaf area; • Level 5: The area of the disease spots accounts for 16%-25% of the whole leaf area; • Level 7: The area of the disease spots accounts for26%-50% of the whole leaf area; • Level 9: The area of the disease spots accounts for more than 50% of the whole leaf area.

[1] = tested on: tea under low-temperature stress; assay: Tea seedlings under low-temperature stress; type: in vivo, tea (Baiye 1#); conditions: for PIABS (photosynthetic performance index): tea seedlings after 24 h at −4° C.; for Cold damage index: tea seedlings, 24 h at −4° C., recovered 3 d; for Decrease of cold damage index / Increase of PIABS: 10,000 nM (so in the source), tea, low-temperature stress, vs 0 nM
Method: The tea trees for test are cutting seedling Baiye 1#. Select tea seedlings with consistent growth, move them into plastic bowls with a diameter of 18 cm, put them in a greenhouse of 25° C. and RH 60%-70%, adapt to growth for about one week, and carry out the test. […] The spray treatment method is the same as the Arabidopsis treatment method in Embodiment 6, the time of low-temperature stress is 24 h, and the temperature is set at −4° C. Take out tea seedlings after stress, conduct dark treatment at room temperature for 30 min, then determine the chlorophyll fluorescence of leaves at the top of tea seedlings by plant efficiency Handy-PEA, then put them in a 25° C. greenhouse and recover them for 3 d, observe and calculate the cold damage condition and grade it. The statistics and grading standard of the cold damage index is shown in Table 12, the calculation formula is as follows and the results are as shown in Table 13. [formula] [table]

[2] = tested on: tomato spotted wilt virus (TSWV); assay: Induced resistance of tobacco to infection of tomato spotted wilt virus; type: in vivo, Nicotiana benthamiana; conditions: for Viral protein content: tobacco leaves 3 d after inoculation, Western blot grayscale, relative
Method: Obtain the tomato spotted wilt virus from Yunnan Province, China, store the initial virus source in a −80° C. refrigerator, activate the virus by inoculating it by friction inoculation on Nicotiana benthamiana leaves, extract viral plasmids, transform them by Escherichia coli competent cells, spread them onto a resistant plate for culture, pick a single colony for PCR screening, select positive colonies for sequencing and subsequent plasmid extraction, add the plasmids with normal sequencing to agrobacterium competent cells, transform the agrobacterium by the electric shock method, spread the transformed agrobacterium solution on the corresponding resistance screening plate, and culture it at 28° C.(±1) for 48 h. Pick a single agrobacterium colony on the transformation plate, place it in 5 mL of LB medium with the corresponding resistance and culture it at 28° C. and 180 rpm overnight. Centrifuge at 6,000 rpm for 2 min, collect the bacteria, suspend the bacteria with a treatment buffer (10 mM MgCl2, 10 mM MES, 10 μM Acetosyringone) until the OD600 of the suspension is 0.5, treat it at 28° C. in a dark place for 3 h and keep it for future use.
Take 2-amino-3-hydroxy-3-methylbutyric acid, dissolve it with distilled water, then dilute the solution with distilled water by gradient into 0 nM, 0.1 nM, 1 nM and 10 nM solutions. Sow Nicotiana benthamiana seeds in a small pot, and culture them at 24(±1)° C., 12 h/12 h illumination for 5 weeks. Select healthy tobacco plants (plants with 8-10 leaves are appropriate), spray 2-amino-3-hydroxy-3-methylbutyric acid solutions at the above concentrations on leaves and stems twice at an interval of 24 h. After 24 hours, suck an agrobacterium solution at a uniform concentration with a 1 mL syringe, press the injection port of the syringe directly on a small hole on the back of a tobacco leaf, and slowly push the bacterial solution into the hole so that the whole leaf is soaked. Culture the soaked tobacco at 24(±1)° C. 12 h/12 h illumination. Observe under a microscope after 3 d and make record; meanwhile, take a sample, analyze the grayscale of protein bands by using Western blot and Image J software, and determine the relative protein content of virus in leaves. Observe the morbidity of the tobacco leaves after 15 days, record the disease index with reference to GB/T 23222-2008 Grade and Investigation Method of Tobacco Diseases and Insect Pests. The formula is as follows: […]
Grading standard of tomato spotted wilt viruses (grading survey with plant as a unit): • Level 0: No disease in the whole plant; • Level 1: The shoot and leaf veins are clear or the leaves are slightly mottled, and the diseased plant is not dwarfed obviously; • Level 3: One third of the leaves are mottled, but the leaves are not deformed, or the plant is dwarfed to more than three quarters of the normal plant height; • Level 5: One third to a half of the leaves are mottled, or a minority of leaves are deformed, or the main veins turn black, or the plant is dwarfed to two thirds to three quarters of the normal plant height; • Level 7: A half to two thirds of the leaves are mottled, or deformed or a minority of major lateral veins are dead, or the plant is dwarfed to a half to two thirds of the normal plant height; • Level 9: The leaves of the whole plant are mottled, or seriously deformed or dead, or the diseased plant is dwarfed to […] of the normal plant height.

[3] = 0.1 nM sprayed twice, tobacco 15 days after TSWV inoculation
[4] = 1 nM sprayed twice, tobacco 15 days after TSWV inoculation
[5] = concentration range 0.1-10 nM, tobacco, TSWV

| Structure (SMILES) | Relative immune effect (wheat powdery mildew; 10 nM) [%] | Relative immune effect (wheat powdery mildew; 100 nM) [%] | Relative immune effect (wheat powdery mildew; 10,000 nM) [%] | Number of mycelia and conidium yield on wheat leaves (wheat powdery mildew) | PIABS (photosynthetic performance index) ([1]; 10 nM) | Cold damage index ([1]; 10 nM) [%] | PIABS (photosynthetic performance index) ([1]; 100 nM) | Cold damage index ([1]; 100 nM) [%] | PIABS (photosynthetic performance index) ([1]; 1,000 nM) | Cold damage index ([1]; 1,000 nM) [%] | Decrease of cold damage index [1] [%] | Increase of PIABS [1] [%] | Disease index [2, 3] [b] | Viral protein content ([2]; 0.1 nM) [b] | Relative immune effect ([2]; 0.1 nM, tobacco, TSWV) [%] | Disease index [2, 4] [c] | Viral protein content ([2]; 1 nM) [c] | Relative immune effect ([2]; 1 nM, tobacco, TSWV) [%] | Relative immune effect ([2]; 10 nM, tobacco, TSWV) [%] | Disease index [2, 5] | further results |
| --- | --- | --- | --- | --- | --- | --- | --- | --- | --- | --- | --- | --- | --- | --- | --- | --- | --- | --- | --- | --- | --- |
| CC(c1ccc(O)cc1)C(N)C(=O)O (stereo not drawn) [2-amino-3-(4-hydroxyphenyl) butyric acid] | 20.17 | 34.92 | 71.12 | decreased significantly | 31.94 ± 1.37bc | 55 | 34.67 ± 3.27ab | 35 | 38.56 ± 2.23a | 30 | 40 | 90.8 | 36.62 ± 0.87 | 0.34 ± 0.004 | 52.54 | 29.83 ± 2.31 | 0.28 ± 0.012 | 61.34 | 67.24 | lower than 50 | PIABS (photosynthetic performance index) ([1]; 1 nM): 28.10 ± 3.10cd; Cold damage index ([1]; 1 nM): 60%; Relative immune effect [2, 5]: more than 50% |
| CC(C)(O)C(N)C(=O)O (stereo not drawn) [2-amino-3-hydroxy-3-methylbutyric acid] | 16.85 | 27.90 | 65.68 | decreased significantly | 28.35 ± 1.66c | 65 | 30.67 ± 2.07bc | 45 | 35.23 ± 1.96b | 30 | 60 | 73 | 58.64 ± 2.31 | 0.41 ± 0.029 | 34.48 | 40.74 ± 3.02 | 0.30 ± 0.012 | 54.48 | 67.59 | lower than 60 | Relative immune effect (wheat powdery mildew; 1,000 nM): 47.24%; Disease index (wheat powdery mildew; concentration greater than or equal to 1,000 nM, susceptible wheat, powdery mildew): lower than 50; PIABS (photosynthetic performance index) ([1]; 10,000 nM): 40.16 ± 2.15a; Cold damage index ([1]; 10,000 nM): 15%; Relative immune effect [2, 5]: more than 30% |
